The text below walks through data of EP0731697B1, “SSI TYRPHOSTINS AND PHARMACEUTICAL COMPOSITIONS” (priority 1993, dated 1995).

Assay [1] addresses EGF receptor (Homo sapiens, UniProt P00533). The note with it: even at concentrations above 100 uM; cited from earlier work.
Assay [2] relates to mice. As to the kind of experiment: TNF-α induced lethal toxicity in actinomycin D treated mice. The note with it: actinimycin D:TNF 20 to 2.5 and 15 to 1.0, SSI 3, 400 mg/mouse i.p. 2 hr prior to TNF, 5 mice. The class given is in vivo. On the procedure: The effect of SSI 3 on lethal toxicity in mice induced by TNF-α was investigated. Mice are relatively resistant to TNF-α, when applied as a single agent. Pretreatment of mice with actinomycin D renders them extremely sensitive to TNF. (Wallach et al., 140 J. Immun. 2994, 1988). SSI 3 delayed TNF-α induced lethal toxicity in actinomycin D treated mice by approximately 15 hours at two ratios of actinimycin D:TNF (20 to 2.5 and 15 to 1.0). Mice were injected, i.p., with TNF at 0 time. SSI 3, […]/mouse was administered (i.p.) 2 hr, and actinomycin D (ACT.D) was given (i.p.) 30 min prior to TNF injection. Each experimental group contained 5 mice. Injection of actinomycin D alone causes death in 2 out of 5 animals after 120 hours and 3 out of 5 after 144 hours.

Chain of EGF receptor (P00533 25-1210): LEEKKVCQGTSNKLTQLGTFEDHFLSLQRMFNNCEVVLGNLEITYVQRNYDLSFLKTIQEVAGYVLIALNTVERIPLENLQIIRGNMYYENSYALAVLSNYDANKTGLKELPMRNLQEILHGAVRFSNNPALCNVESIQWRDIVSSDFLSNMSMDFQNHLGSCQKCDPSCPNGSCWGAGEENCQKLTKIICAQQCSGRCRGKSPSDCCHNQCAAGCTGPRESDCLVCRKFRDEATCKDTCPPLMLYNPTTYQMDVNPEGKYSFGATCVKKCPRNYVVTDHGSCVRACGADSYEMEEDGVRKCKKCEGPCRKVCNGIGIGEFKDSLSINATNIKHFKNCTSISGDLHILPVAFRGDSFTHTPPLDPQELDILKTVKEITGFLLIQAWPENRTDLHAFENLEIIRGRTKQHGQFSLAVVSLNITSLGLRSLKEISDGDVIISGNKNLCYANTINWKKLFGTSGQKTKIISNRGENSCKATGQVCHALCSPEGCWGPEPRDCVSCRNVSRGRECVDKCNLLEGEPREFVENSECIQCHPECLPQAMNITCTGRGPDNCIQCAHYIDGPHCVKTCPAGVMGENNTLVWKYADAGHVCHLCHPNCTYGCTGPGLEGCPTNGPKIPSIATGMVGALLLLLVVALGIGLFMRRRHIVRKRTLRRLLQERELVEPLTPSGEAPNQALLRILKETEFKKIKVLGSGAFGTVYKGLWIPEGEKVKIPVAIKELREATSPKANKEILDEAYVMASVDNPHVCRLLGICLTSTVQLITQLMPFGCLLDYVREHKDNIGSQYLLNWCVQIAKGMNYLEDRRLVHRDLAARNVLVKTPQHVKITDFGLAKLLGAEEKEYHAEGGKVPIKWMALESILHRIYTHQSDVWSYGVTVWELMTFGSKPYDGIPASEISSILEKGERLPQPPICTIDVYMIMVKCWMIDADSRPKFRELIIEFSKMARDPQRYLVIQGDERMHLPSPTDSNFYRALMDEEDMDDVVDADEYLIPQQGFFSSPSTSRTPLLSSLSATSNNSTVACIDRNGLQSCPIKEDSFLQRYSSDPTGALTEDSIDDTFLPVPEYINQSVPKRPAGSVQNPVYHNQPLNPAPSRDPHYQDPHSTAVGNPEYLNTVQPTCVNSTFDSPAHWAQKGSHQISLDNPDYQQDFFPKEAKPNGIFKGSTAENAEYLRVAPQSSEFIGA

Turning to `N#CC(C#N)=Cc1ccc([N+](=O)[O-])c(O)c1` [SSI 3], in assay [1], the “effect on EGF receptor” value was “no effect”. Moreover, in assay [2], the “delay of TNF-α induced lethal toxicity” value is on record as “approximately 15 hours”.
